These results are taken from US20030108629A1, “Compositions and methods for prostate and kidney health and disorders, an herbal preparation” (priority 2001, published 2003).

Structures are written as SMILES.

The nature of this assay: Case report: incontinence person with enlarged prostate. It is filed as in vivo, human. To be noted: prescribed for enlarged prostate. The source says: The 9-herb composition and Incontinence. Person diagnosed with having an enlarged prostate suffered from frequent-urination problems including increased daily frequency and reduced volume. They had the urge to urinate every two hours and the amount was only a few drops. Their symptoms were attributed to old age. […] They are able to urinate what they consider a normal amount of urine in a steady stream as opposed to the dribbling they experienced prior to taking the 9-herb composition. […] Because they are sleeping better, they have more energy throughout the day.

As for `CC(C)(C)NC(=O)[C@H]1CC[C@H]2[C@@H]3CC[C@H]4NC(=O)C=C[C@]4(C)[C@H]3CC[C@]12C` [PROSCAR], the “effect on urination problem” value was “did not alleviate the urination problem”.
